Active and inactive are the calls of the source. The rule behind the calls is not given here. Positions of bridges follow the written chain, without caps; N, C: chain ends. Residues, ends and D or L forms follow the SMILES beside them.
Legend:
[1] = target: Neuropilin-1 (Rattus norvegicus) (UniProt Q9QWJ9); assay: Inhibition of (bt)-VEGF165 binding to purified recombinant rat NRP1/Fc chimera measured after overnight incubation by ELISA method relative to A7R
[2] = target: Neuropilin-1 (Rattus norvegicus) (UniProt Q9QWJ9); assay: Inhibition of (bt)-VEGF165 binding to purified recombinant rat NRP1/Fc chimera at 10 uM measured after overnight incubation by ELISA method
HUVEC [3] = assay: Toxicity against HUVEC assessed as reduction in cell viability at 200 to 1000 uM incubated for 96 hrs by MTS assay; assay type: cell-based; conditions: human
[4] = target: Neuropilin-1 (Rattus norvegicus) (UniProt Q9QWJ9); assay: Inhibition of (bt)-VEGF165 binding to purified recombinant rat NRP1/Fc chimera at 1 uM measured after overnight incubation by ELISA method
Neuropilin-1 = Neuropilin-1 (Rattus norvegicus, UniProt Q9QWJ9); assay: (§1) Inhibition of (bt)-VEGF165 binding to purified recombinant rat NRP1/Fc chimera measured after overnight incubation by ELISA method
[5] = target: Neuropilin-1 (Rattus norvegicus) (UniProt Q9QWJ9); assay: as §1
[6] = target: Neuropilin-1 (Rattus norvegicus) (UniProt Q9QWJ9); assay: Inhibition of (bt)-VEGF165 binding to purified recombinant rat NRP1/Fc chimera at 100 uM measured after overnight incubation by ELISA method
[7] = target: Neuropilin-1 (Rattus norvegicus) (UniProt Q9QWJ9); assay: Inhibition of (bt)-VEGF165 binding to purified recombinant rat NRP1/Fc chimera at 0.1 uM measured after overnight incubation by ELISA method
[8] = target: Neuropilin-1 (Rattus norvegicus) (UniProt Q9QWJ9); assay: Inhibition of (bt)-VEGF165 binding to purified recombinant rat NRP1/Fc chimera at 0.3 uM measured after overnight incubation by ELISA method
[9] = target: Neuropilin-1 (Rattus norvegicus) (UniProt Q9QWJ9); assay: Inhibition of (bt)-VEGF165 binding to purified recombinant rat NRP1/Fc chimera at 3 uM measured after overnight incubation by ELISA method
[10] = target: Neuropilin-1 (Rattus norvegicus) (UniProt Q9QWJ9); assay: Inhibition of (bt)-VEGF165 binding to purified recombinant rat NRP1/Fc chimera at 0.01 uM measured after overnight incubation by ELISA method
MDA-MB-231 [11] = assay: Toxicity against human MDA-MB-231 assessed as reduction in cell viability at 200 to 1000 uM incubated for 96 hrs by MTS assay; assay type: cell-based; conditions: mda-mb-231, 96 h
MDA-MB-231 [12] = assay: Toxicity against human MDA-MB-231 assessed as reduction in cell viability at 200 to 1000 uM incubated for 24 hrs by MTS assay; assay type: cell-based; conditions: mda-mb-231, 24 h
HUVEC [13] = assay: Toxicity against HUVEC assessed as reduction in cell viability at 200 to 1000 uM incubated for 24 hrs by MTS assay; assay type: cell-based; conditions: human

Ratio IC50 [1] | inhibition [2] | inhibition [4] | IC50 (Neuropilin-1) | inhibition [5] | inhibition [6] | inhibition [7] | inhibition [8] | inhibition [9] | inhibition [10] | Molecule | Activity (HUVEC [3]) | Activity (MDA-MB-231 [11]) | Activity (MDA-MB-231 [12]) | Activity (HUVEC [13])
< 30 | 94.7% | 76.5% | 0.18 µM | Dose-dependent effect | 100% | 35.5% | 61.7% | 86.7% | 3.1% | N=C(N)NCCC[C@H](NC(=O)[C@@H]1CCC(=O)NCCCC[C@H](N)C(=O)N2CCC[C@H]2C(=O)N1)C(=O)O (H-KPER-OH; lactam 1-3) | Non-toxic | Non-toxic | Non-toxic | Non-toxic
– | 61% | 24.4% | 5.86 µM | – | – | 2.9% | 14.6% | 38.1% | inactive | H-ATWLPPR-OH | – | – | – | –
